{"source": "patent US10829446B2", "about": "“Aryl sulfonohydrazides” (MONASH UNIVERSITY, priority 2015, dated 2020)", "key": {"[1]": {"test_system": "Eμ-Myc pre-leukemia pre-B cells", "test": "Bioassay 6: proliferation curves of pre-B cells on OP9 feeder layer, Eμ-Myc", "format": "cell-based", "text": "Pre B cells are isolated from bone marrow according to the criterion: cell surface expression of B220, CD19, but not cKit or IgM. Proliferation curves of wild type pre-B cells and Ep-Myc pre-leukemia pre B cells are generated by counting cells cultured on OP9 cell feeder layer in the presence of the growth factor IL-7. Media is changed every two days and cells are passaged every 4 days."}, "[2]": {"test_system": "Wild type pre B cells", "test": "Bioassay 8: cell cycle analysis (DNA content and Ki67)", "format": "cell-based", "conditions": "for cells in G0 / cells in G1 / cells in G2/M / cells in S: 1 μM", "procedure": "Pre B cells are isolated from bone marrow according to the criterion: cell surface expression of B220, CD19, but not cKit or IgM. Pre-B cells are cultured on OP9 cells with IL7 in the presence of compounds at various concentrations. The stages of the cell cycle in cultured pre-B cells with and without treatment is analysed by flow cytometry using a stain for DNA content combined with the cell cycle marker Ki67 to enumerate the proportion of cells in different phases of the cell cycle."}}}
{"smiles": "Cc1cc(-c2ccccc2)cc(C(=O)NNS(=O)(=O)c2ccccc2)c1F", "note": "[Compound 36]", "values": [{"measurement": "cumulative average cell number", "setting": "[1]; 0.2 μM, Day 4", "value": 373055}, {"measurement": "cumulative average cell number", "setting": "[1]; 0.2 μM, Day 8", "value": 1110631}, {"measurement": "cumulative average cell number", "setting": "[1]; 0.2 μM, Day 12", "value": 464403}, {"measurement": "cumulative average cell number", "setting": "[1]; 0.2 μM, Day 16", "value": 81501}, {"measurement": "cumulative average cell number", "setting": "[1]; 1 μM, Day 4", "value": 172777}, {"measurement": "cumulative average cell number", "setting": "[1]; 1 μM, Day 8", "value": 135815}, {"measurement": "cumulative average cell number", "setting": "[1]; 1 μM, Day 12", "value": 29983}, {"measurement": "cumulative average cell number", "setting": "[1]; 1 μM, Day 16", "value": 0}, {"measurement": "cumulative average cell number", "setting": "[1]; 5 μM, Day 4", "value": 79444}, {"measurement": "cumulative average cell number", "setting": "[1]; 5 μM, Day 8", "value": 33236}, {"measurement": "cumulative average cell number", "setting": "[1]; 5 μM, Day 12", "value": 0}, {"measurement": "cumulative average cell number", "setting": "[1]; 5 μM, Day 16", "value": 0}, {"measurement": "proliferation of pre-leukaemic B cell progenitors", "setting": "[1]; in words, compared to vehicle", "value": "inhibited"}, {"measurement": "cells in G0", "setting": "[2]; cultured for 4 days", "value": 14.5, "unit": "%"}, {"measurement": "cells in G1", "setting": "[2]; cultured for 4 days", "value": 55.9, "unit": "%"}, {"measurement": "cells in G2/M", "setting": "[2]; cultured for 4 days", "value": 12.7, "unit": "%"}, {"measurement": "cells in S", "setting": "[2]; cultured for 4 days", "value": 15.6, "unit": "%"}, {"measurement": "cells in G0", "setting": "[2]; cultured for 6 days", "value": 11.0, "unit": "%"}, {"measurement": "cells in G1", "setting": "[2]; cultured for 6 days", "value": 66.6, "unit": "%"}, {"measurement": "cells in G2/M", "setting": "[2]; cultured for 6 days", "value": 9.0, "unit": "%"}, {"measurement": "cells in S", "setting": "[2]; cultured for 6 days", "value": 8.3, "unit": "%"}, {"measurement": "number of cells in S phase down-regulated", "setting": "[2]; wild type pre-B cells", "value": 40, "unit": "%"}]}
